Source: patent publication US7482347B2, “Piperazine derivatives with CCR-3 inhibiting activity” (priority 2004, dated 2009)

Target: T1, human CCR-3 (Homo sapiens, UniProt P51677)
T1 construct: expressed in transfected cells; membranes prepared
T1 sequence (P51677 1-355): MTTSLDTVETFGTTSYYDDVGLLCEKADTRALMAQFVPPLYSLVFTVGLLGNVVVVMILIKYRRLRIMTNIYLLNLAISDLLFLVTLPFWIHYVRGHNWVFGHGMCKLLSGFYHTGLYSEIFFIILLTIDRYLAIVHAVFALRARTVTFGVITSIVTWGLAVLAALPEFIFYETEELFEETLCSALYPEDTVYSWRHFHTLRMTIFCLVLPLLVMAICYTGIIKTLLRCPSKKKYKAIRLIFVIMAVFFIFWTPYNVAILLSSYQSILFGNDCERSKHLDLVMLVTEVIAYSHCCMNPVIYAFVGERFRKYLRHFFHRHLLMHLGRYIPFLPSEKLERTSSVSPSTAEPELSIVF
Test: [125I]-human eotaxin binding SPA assay on membranes of RBL-2H3 cells stably expressing CCR3
Settings: membranes of RBL-2H3 cells expressing CCR3, 50 pM [125I]-human eotaxin, 4 hours at room temperature, read-out: IC50 (inhibition of binding of [125I]-human eotaxin to CCR-3)
From the text: Recombinant cells expressing human CCR-3 are captured by wheatgerm agglutinin (WGA) polyvinyltoluidene (PVT) SPA beads (available from Amersham), through a specific interaction between the WGA and carbohydrate residues of glycoproteins on the surface of the cells. [^125I]-human eotaxin (available from Amersham) binds specifically to CCR-3 receptors bringing the [^125I]-human eotaxin in close proximity to the SPA beads. Emitted â-particles from the [^125I]-human eotaxin excite, by its proximity, the fluorophore in the beads and produce light.
Preparation of Assay Buffer: 5.96 g HEPES and 7.0 g sodium chloride are dissolved in distilled water and 1 M aqueous CaCl2 (1 ml) and 1M aqueous MgCl2 (5 ml) are added. The pH is adjusted to 7.6 with NaOH and the solution made to a final volume of 1 l using distilled water. 5 g bovine serum albumin and 0.1 g sodium azide are then dissolved in the solution and the resulting buffer stored at 4° C. A COMPLETE™ protease inhibitor cocktail tablet (available from Boehringer) is added per 50 ml of the buffer on the day of use. […]
The assay is performed in a final volume of 250 μl per well of an OPTIPLATE™ microplate (ex Canberra Packard). […] The resulting scintillations are counted using a Canberra Packard TopCount, each well being counted for 1 minute. […]

IC50 [µM]	Structure (SMILES)
0.056	COc1ccc(OC)c(S(=O)(=O)N2CCC(CN3CCN(Cc4ccc(F)cc4)CC3)CC2)c1 [Example 3, 1-[1-(2,5-dimethoxybenzenesulfonyl)piperidinyl-4-ylmethyl]-4-(4-fluorobenzyl)piperazine]
0.257	Cc1noc(C)c1S(=O)(=O)N1CCC(CN2CCN(Cc3ccc(F)cc3)CC2)CC1 [Example 1, 1-[1-(3,5-Dimethylisoxazole-4-sulfonyl)-piperdin-4-yl-methyl]-4-(4-fluorobenzyl)-piperazine]
